The text below walks through data of ChEMBL document CHEMBL4665675 (J Med Chem, 2020).

SMILES strings stand for the structures. Where a SMILES comes first, the peptide text is derived from it. [ ]: non-standard residue; d: D form. The star is where a group is joined. Cholesteryloxycarbonyl = CC(C)CCC[C@@H](C)[C@H]1CC[C@H]2[C@@H]3CC=C4C[C@@H](OC(=O)*)CC[C@]4(C)[C@H]3CC[C@]12C; PEG3 = NCCOCCOCCOCCC(=O)O; Aib = CC(C)(N)C(=O)O; βAla = NCCC(=O)O

The subject of experiment [1] is BJAB. Kind of experiment: Induction of apoptosis in human BJAB cells at 5 nM incubated for 72 hrs by flow cytometric method relative to control. The class given is functional.
The subject of the next experiment is MCF7. In words: Induction of apoptosis in human MCF7 cells at 3 nM incubated for 72 hrs by flow cytometric method. The class given is functional.
Experiment [2] relates to NALM-6. In words: Induction of apoptosis in human Nalm-6 cells at 5 nM incubated for 72 hrs by flow cytometric method relative to control. Type of experiment: functional. For orientation: A flow cytometer gives signals particle by particle.
The test system of experiment [3] is NALM-6. Kind of experiment: Antiproliferative activity against human Nalm-6 cells incubated for 24 hrs by cell counting based method. Conditions: NALM-6, 24 h. The class given is functional.
In experiment [4] the test system is BJAB. In words: Antiproliferative activity against human BJAB cells incubated for 24 hrs by cell counting based method. Type of experiment: functional.
The next experiment is filed under the species Bos taurus. In words: Inhibition of [3H]colchicine binding to bovine brain tubulin at 5 uM incubated for 10 mins by DEAE-cellulose filter method relative to control.
The subject of a further experiment is L1210. In words: Cytotoxicity against mouse L1210 cells incubated for 24 hrs. Type of experiment: functional, cell-based. Conditions: L1210, 24 h.
In a further experiment the test system is HEK293. Kind of experiment: Cytotoxicity against HEK293 cells. Type of experiment: cell-based. The settings on record: Homo sapiens.
The nature of experiment [5]: Inhibition of DNA topoisomerase2 (unknown origin). The arrangement: species or system Homo sapiens.
For experiment [6], the system named is SK-BR-3. In words: Cytotoxicity against human SK-BR-3 cells assessed as reduction in cell viability incubated for 72 hrs in presence of trastuzumab-iCME by flow cytometry. Conditions: SK-BR-3, 72 h. Type of experiment: functional, cell-based.
Experiment [7] relates to SK-BR-3. In words: Cytotoxicity against human SK-BR-3 cells assessed as reduction in cell viability incubated for 72 hrs by flow cytometry. Type of experiment: functional, cell-based. The settings on record: SK-BR-3, 72 h.

Take `C=C1Cc2cc(OC)c(OC)c(OC)c2-c2ccc(OC)c(=O)cc21`: the Activity was 48% in the experiment on BJAB [1], 62% in the experiment with MCF7 and 71% in the experiment on NALM-6 [2]. As to `COc1cc2c(c(OC)c1OC)C1=C(C=C(O)C(=O)CC1)CO[C@@H]2C`, the IC50 with NALM-6 [3] and in the experiment on BJAB [4] was 1000 nM in each case. `COc1c2c(cc3c1-c1ccc(OC)c(=O)cc1[C@@H](NC(C)=O)CC3)OCO2` yielded an inhibition in the experiment filed under Bos taurus of 54%. This compound displayed an IC50 in the experiment with L1210 of 20 nM. As for `COc1cc2c(c(OC)c1OC)-c1ccc3[nH]c(C)c(C)c3c1[C@@H](NC(C)=O)CC2`, the half-maximal inhibitory concentration (IC50) in the experiment on HEK293 was found to be 2000 nM. In experiment [5], `CSc1ccc2c(cc1=O)[C@@H](NC(C)=O)CCc1cc(O)c(O)c(O)c1-2` gave an IC50 of 9000 nM. Turning to `CC(C)CCC[C@@H](C)[C@H]1CC[C@H]2[C@@H]3CC=C4C[C@@H](OC(=O)NCCC(=O)NCCC(=O)N[C@@H](CCC(=O)O)C(=O)N[C@@H](CCC(=O)O)C(=O)NCCOCCOCCOCCC(=O)NCCOCCOCCOCCC(=O)NC(C)(C)C(=O)NC(C)(C)C(=O)NC(C)(C)C(=O)NC(C)(C)C(=O)N[C@@H](Cc5c[nH]c6ccccc56)C(=O)N[C@@H](Cc5ccc(O)cc5)C(=O)N[C@@H](C)C(=O)N[C@@H](Cc5c[nH]c6ccccc56)C(=O)N[C@@H](Cc5ccc(O)cc5)C(=O)N[C@@H](C)C(=O)N[C@@H](Cc5c[nH]c6ccccc56)C(=O)N[C@@H](Cc5ccc(O)cc5)C(=O)N5CCC[C@H]5C(=O)N5CCC[C@H]5C(=O)N[C@H](C(=O)N[C@H](C(N)=O)C(C)C)C(C)C)CC[C@]4(C)[C@H]3CC[C@]12C` ({Cholesteryloxycarbonyl-βAla-βAla}-EE[PEG3][PEG3][Aib][Aib][Aib][Aib]WYAWYAWYPPVV-NH2), the IC50 with SK-BR-3 [6] was 0.11 nM; with SK-BR-3 [7], over 10000 nM.

As usually defined, the IC50 is the concentration needed to halve the response being measured. For orientation: inhibition means the percentage by which the read-out fell short of the control. A higher inhibition goes with strong suppression.
